These compounds were tested on 4T1 (assay: Cytotoxicity against mouse 4T1 cells assessed as reduction in cell viability incubated for 24 hrs by MTT assay). Conditions: 4T1, 24 h.
Assay type: functional, cell-based
Work on `CC(=O)O[C@@H]1[C@H]2[C@@H](OC(=O)c3ccccc3)[C@@H](C)C[C@]2(OC(C)=O)C(=O)[C@H](C)[C@@H]2[C@@H]3[C@H](CC[C@]21C)C3(C)C` yielded an IC50 of 8200 nM.
In the case of `CC(=O)O[C@H]1C(=O)[C@@]2(C)[C@H]([C@H](OC(=O)c3ccccc3)[C@]3(O)C[C@H](OC(=O)[C@H](O)[C@@H](NC(=O)c4ccccc4)c4ccccc4)C(C)=C1C3(C)C)[C@]1(OC(C)=O)CO[C@@H]1C[C@@H]2O` [PACLITAXEL], the IC50 is reported as 800 nM.
`CC(=O)O[C@@H]1[C@H]2[C@@H](OC(=O)c3ccccc3)[C@@H](C)C[C@]2(OC(C)=O)C(=O)[C@@H](C)[C@@H]2[C@@H]3[C@H](CC[C@]21C)C3(C)C` gave an IC50 of 2500 nM.
`C=C1CC[C@H]2[C@@H](/C=C(\C)C(=O)[C@@]3(OC(C)=O)C[C@H](C)[C@H](OC(=O)c4ccccc4)[C@@H]3[C@H]1OC(C)=O)C2(C)C` was tested, and the IC50 was > 10000 nM.

Source: ChEMBL document CHEMBL4825681, “Iron-Catalyzed Skeletal Conversion of Lathyrane to Premyrsinane Euphorbia Diterpenes and Their Cytotoxic Activities” (J Nat Prod, 2021)
